For 21 compounds, IC50 results are on record in patent US20080312227A1, “Substituted Pyrido(2,3-D) Pyrimidine Derivatives Useful as Medicines for the Treatment of Autoimmune Disorders” (4 AZA BIOSCIENCE NV, priority 2005, published 2008).

Test [1] concerns human TNF-α production by PBMC. As to the kind of experiment: TNF-α assay (LPS-stimulated PBMC, sandwich ELISA). The test is classed as cell-based. Conditions: PBMC stimulated with LPS 1 μg/ml, 72 hours, read-out: TNF α (IC50 in the TNFα assay). Here is the method: Peripheral blood mononuclear cells (herein referred as PBMC), in response to stimulation by lipopolysaccharide (hereinafter LPS), a gram-negative bacterial endotoxin, produce various […], in particular human TNF-α. Inhibition of the activation of PBMC can therefore be measured by the level of suppression of the production of TNF-α by PBMC in response to stimulation by LPS.
Such inhibition measurement was performed as follows: PBMC were isolated from heparinized peripheral blood by density gradient centrifugation over Lymphoprep (commercially available from Nycomed, Norway). LPS was then added to the PMBC suspension in complete medium (10^6 cells/ml) at a final concentration of 1 μg/ml. The pyrido[3,2-d]pyrimidine derivative to be tested was added at different concentrations (0.1 μM, 1 μM and 10 μM) and the cells were incubated at 37° C. for 72 hours in 5% CO2. The supernatants were collected, then TNF-α concentrations were measured with respectively an anti-TNF-α antibody in a sandwich ELISA (Duo Set ELISA human TNFα, commercially available from R&D Systems, United Kingdom). The colorimetric reading of the ELISA was measured by a Multiskan RC plate reader (commercially available from ThermoLabsystems, Finland) at 450 nm (reference wavelength: 690 nm). Data analysis was performed with Ascent software 2.6. (also from ThermoLabsystems, Finland): a standard curve (recombinant human TNFα) was drawn and the amount (pg/ml) of each sample on the standard curve was determined.
The % suppression of human TNFα production by the pyrido[2,3-d]pyrimidine derivatives of the invention was calculated using the formula: […]

Test [2] deals with human IL-1 β production by PBMC. As to the kind of experiment: IL-1 β assay (LPS-stimulated PBMC, sandwich ELISA). Type of test: cell-based. Conditions: PBMC stimulated with LPS 1 μg/ml, 72 hours, read-out: IC50 in the IL-1 β test (50% suppression of human IL-1 β). Here is the method:
Peripheral blood mononuclear cells (herein referred as PBMC), in response to stimulation by lipopolysaccharide (LPS), a gram-negative bacterial endotoxin, produce various […], in particular human IL-1 β. Inhibition of the activation of PBMC can therefore be measured by the level of suppression of the production of IL-1 β by PBMC in response to stimulation by LPS.
Such inhibition measurement was performed as follows: PBMC were isolated from heparinized peripheral blood by density gradient centrifugation over Lymphoprep (commercially available from Nycomed, Norway). LPS was then added to the PMBC suspension in complete medium (10^6 cells/ml) at a final concentration of 1 μg/ml. […] The supernatants were collected, then IL-1 β concentrations were measured with an anti-IL-1 β antibody in a sandwich ELISA. The calorimetric reading of the ELISA was measured by a Multiskan RC plate reader (commercially available from ThermoLabsystems, Finland) at 450 nm (reference wavelength: 690 nm). […] (also from ThermoLabsystems, Finland): a standard curve (recombinant human IL-1 β) was drawn and the amount (pg/ml) of each sample on the standard curve was determined.
The % suppression of human IL-1 β by the pyrido[2,3-d]pyrimidine derivatives of this invention was calculated using the formula: […]
On the technique in general: An ELISA detects its analyte on a solid surface through an enzyme-linked reagent.

Test [3] deals with mixed lymphocyte reaction (PBMC with irradiated allogeneic PBMC or RPMI1788 stimulator cells). The test is described as follows: Mixed lymphocyte reaction (MLR) assay. The test is classed as cell-based, human. Conditions: read-out: MLR (IC50, lowest concentration giving 50% suppression of the MLR). Here is the method: Pyrido[2,3-d]pyrimidine derivatives were first dissolved (10 mM) in dimethyl-sulfoxide (hereinafter referred as DMSO) and further diluted in culture medium before use for the following in vitro experiments. The commercially available culture medium consisted of RPMI-1640+10% foetal calf serum (FCS). Some pyrido[2,3-d]pyrimidine derivatives described herein were tested in the following mixed lymphocyte reaction (MLR) assay.
Peripheral blood mononuclear cells (hereinafter referred as PBMC) were isolated from heparinized peripheral blood by density gradient centrifugation over Lymphoprep (Nycomed, Maorstua, Norway). Allogeneic PBMC or Eppstein-Barr Virus-transformed human B cells [commercially available under the trade name RPMI1788 (ATCC name CCL156)] which strongly express B7-1 and B7-2 antigens were used as stimulator cells after irradiation with 30 Gy. MLR was performed in triplicate wells. After 5 days incubation at 37° C., 1 μCi [^3H]-thymidine was added to each cup. After a further 16 hours incubation, cells were harvested and counted in a β-counter. Inhibition of proliferation by a compound described in some of the present examples was counted while using the formula: […]
wherein cpm is the thymidine count per minute. The MLR assay is regarded by those skilled in the art as an in vitro analogue of the transplant rejection since it is based on the recognition of allogeneic major histocompatibility antigens on the stimulator leukocytes, by responding lymphocytes.

[4] abbreviates: Homo sapiens, RPMI-1788, 5 days incubation then 16 h [3H]-thymidine.
[5] abbreviates: 5 days incubation then 16 h [3H]-thymidine.

Where a name gives a salt, the structure may show the parent alone. Read-outs that look alike come from different tables or passages of the source.

For the compound “2-amino-6-(3,4-dimethoxyphenyl)-4-(4-N-methyl piperidinoxy)pyrido[2,3-d]pyrimidine [Example 34]”, the IC50 in test [1] was 6.7 µM.

For `COc1ccc(-c2cnc3nc(N)nc(Nc4cccc(Br)c4)c3c2)cc1OC` [Example 42, 2-amino-4-(3-bromo-anilino)-6-(3,4-dimethoxyphenyl)pyrido[2,3-d]pyrimidine], the IC50 in test [1] (Homo sapiens) is 3.3 µM; in test [2] (Homo sapiens) it was 7 µM; in test [3] (setting [4]) it was 3.3 µM.

For the compound `CC(C)Oc1nc(N)nc2ncc(-c3cccs3)cc12` [Example 21, 2-amino-4-isopropoxy-6-(2-thienyl)pyrido[2,3-d]pyrimidine], the IC50 in test [1] (Homo sapiens) amounted to 0.8 µM.

For `COc1ccc(-c2cnc3nc(N)nc(N4CCN(C(=O)COc5ccccc5)CC4)c3c2)cc1OC` [Example 10, 2-amino-4-(N-phenoxyacetyl-N-piperazin-1-yl)-6-(3,4-dimethoxyphenyl)pyrido[2,3d]pyrimidine], the IC50 in test [1] amounted to 1.7 µM; in test [3] (setting [5]) it was 0.3 µM.

As to `COc1ccc(-c2cnc3nc(N)nc(N4CCOCC4)c3c2)cc1OC` [Example 4, 2-amino-4-morpholino-6-(3,4-dimethoxyphenyl)-pyrido[2,3-d]pyrimidine], the values for the IC50 in test [1] (Homo sapiens) and in test [3] (setting [4]) were 3.2 µM and 4.8 µM, respectively.

Turning to `COc1ccc(-c2cnc3nc(N)nc(N4CCN(C(=O)Nc5ccc(C)cc5)CC4)c3c2)cc1OC` [Example 12, 2-amino-4-(N-4-methylphenylcarbamoyl-piperazin-1-yl]-6-(3,4-dimethoxyphenyl)pyrido[2,3-d]pyrimidine], the IC50 in test [1] is 4.9 µM; in test [3] (setting [5]) it was 0.4 µM.

For `Cc1ccc(NC(=O)N2CCN(c3nc(N)nc4ncc(Br)cc34)CC2)cc1` [Example 7, 2-amino-4-[N-4-methylphenylcarbamoyl-piperazin-1-yl]-6-bromo-pyrido[2,3-d]pyrimidine], the IC50 in test [3] (setting [5]) turned out to be 0.7 µM.

For `COc1ccc(-c2cnc3nc(N)nc(N4CCNCC4)c3c2)cc1OC` [Example 22, 2-amino-4-(piperazin-1-yl)-6-(3,4-dimethoxyphenyl)-pyrido[2,3-d]pyrimidine], the IC50 in test [1] (Homo sapiens) was 8.1 µM.

With `COc1ccc(-c2cnc3nc(N)nc(NC(C)C)c3c2)cc1OC` [Example 31, 2-amino-4-isopropylamino-6-(3,4-dimethoxyphenyl)pyrido[2,3-d]pyrimidine], the IC50 came out at 0.7 µM in test [1] (Homo sapiens) and 5.7 µM in test [3] (setting [4]).

As to `CCC(C)Oc1nc(N)nc2ncc(-c3ccc(OC)c(OC)c3)cc12` (centres unmarked) [Example 36, 2-amino-4-(sec-butoxy)-6-(3,4-dimethoxyphenyl)-pyrido[2,3d]pyrimidine], the IC50 in test [1] stood at 0.6 µM; in test [3] (setting [5]) it was 2.6 µM.

With `COc1ccc(-c2cnc3nc(N)nc(OC(C)C)c3c2)cc1OC` [Example 2, 2-amino-4-isopropoxy-6-(3,4-dimethoxyphenyl)-pyrido[2,3-d]pyrimidine], the IC50 stood at 0.09 µM in test [1] (Homo sapiens) and 0.9 µM in test [3] (setting [4]).

Regarding `CCC(C)Oc1nc(N)nc2ncc(-c3ccc(OC)c(OC)c3)cc12` (centres unmarked) [Example 37, hydrochloride salt of 2-amino-4-(sec-butoxy)-6-(3,4-dimethoxyphenyl)-pyrido[2,3-d]pyrimidine], the IC50 in test [1] turned out to be 0.5 µM; in test [3] (setting [5]), 3.2 µM.

Take `COc1ccc(-c2cnc3nc(N)nc(N4CCN(C(=O)OCc5ccccc5)CC4)c3c2)cc1OC` [Example 15, 2-amino-6-(3,4-dimethoxyphenyl)-4-[(N-benzyloxycarbonyl)-piperazin-1-yl]-pyrido[2,3-d]pyrimidine]: the IC50 in test [1] worked out at 0.9 µM; in test [2], 7 µM; in test [3] (setting [5]), 0.8 µM.

On to `COc1ccc(-c2cnc3nc(N)nc(NCc4ccccc4)c3c2)cc1OC` [Example 43, 2-amino-4-(benzylamino)-6-(3,4-dimethoxyphenyl)pyrido[2,3-d]pyrimidine], for which the IC50 in test [3] (setting [4]) was 5 µM.

Consider `COc1ccc(-c2cnc3nc(N)nc(NCCc4ccccc4)c3c2)cc1OC` [Example 44, 2-amino-4-(phenylethylamino)-6-(3,4-dimethoxyphenyl)pyrido[2,3-d]pyrimidine], for which the IC50 is 4.2 µM in test [1] (Homo sapiens) and 4.3 µM in test [3] (setting [4]).

As to `CCCNc1nc(N)nc2ncc(-c3ccc(OC)c(OC)c3)cc12` [Example 30, 2-amino-4-n-propylamino-6-(3,4-dimethoxyphenyl)pyrido[2,3-d]pyrimidine], the IC50 in test [1] (Homo sapiens) amounted to 4 µM; in test [3] (setting [4]), 5.2 µM.

For the compound `COc1ccc(-c2cnc3nc(N)nc(N4CCCCC4)c3c2)cc1OC` [Example 32, 2-amino-4-(1-piperidino)-6-(3,4-dimethoxyphenyl)pyrido[2,3-d]pyrimidine], the IC50 in test [1] was 0.9 µM; in test [3] (setting [5]), 1.9 µM.

Take `COc1ccc(-c2cnc3nc(N)nc(N4CCN(Cc5ccccc5)CC4)c3c2)cc1OC` [Example 23, 2-amino-4-(4-benzylpiperazin-1-yl)-6-(3,4-dimethoxyphenyl)-pyrido[2,3-d]pyrimidine]: the IC50 in test [1] (Homo sapiens) worked out at 0.7 µM; in test [3] (setting [4]), 7.2 µM.

As for `COc1ccc(-c2cnc3nc(N)nc(OC4CCOCC4)c3c2)cc1OC` [Example 33, 2-amino-4-(tetrahydro-2H-pyran-4-yloxy)-6-(3,4-dimethoxyphenyl)pyrido[2,3-d]pyrimidine], the IC50 was 0.6 µM in test [1] (Homo sapiens) and 2.4 µM in test [3] (setting [4]).

`COc1ccc(-c2cnc3nc(N)nc(OC)c3c2)cc1OC` [Example 35, 2-amino-4-methoxy-6-(3,4-dimethoxyphenyl)pyrido[2,3d]pyrimidine]: the IC50 in test [1] was found to be 0.9 µM; in test [3] (setting [5]) it was 6.2 µM.

Take `Cc1ccc(-c2cnc3nc(N)nc(OC(C)C)c3c2)cc1C` [Example 38, 2-amino-4-isopropoxy-6-(3,4-dimethylphenyl)-pyrido[2,3-d]pyrimidine]: in test [1] (Homo sapiens), the IC50 stood at 0.9 µM.
